Experimental data taken from the supplement of paper PMC10702517.
± gives the standard deviation.

Key:
[1] = chemical recovery by SPE of plasma after PDMS sampling; higher = better extraction; conditions: pooled human plasma, extraction method: HLB SPE of plasma after PES
[2] = chemical recovery from spiked human plasma; higher = better extraction; conditions: pooled human plasma
[3] = extraction method: SPE only (HLB 96-well), PES comparison experiment
[4] = extraction method: solvent precipitation (ACN + hexane)
[5] = extraction method: PES+SPE (3 d PDMS equilibration then HLB SPE)
[6] = extraction method: SPE only (HLB 96-well)
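For chemical recovery by SPE of plasma after PDMS sampling in this document: over 400 spiked chemicals quantified by LC-HRMS or GC-HRMS via internal standard calibration, recovery relative to spike mix added to unspiked plasma extract to correct matrix effects.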

| Structure (SMILES) | chemical recovery by SPE of plasma ([1]; equilibration time (d): 3) | chemical recovery by SPE of plasma ([1]; equilibration time (d): 6) | chemical recovery [2, 3] | chemical recovery [2, 4] | chemical recovery by SPE of plasma ([1]; equilibration time (d): 1) | chemical recovery [2, 5] | chemical recovery [2, 6] |
| --- | --- | --- | --- | --- | --- | --- | --- |
| CO/N=C(/C(=O)O)c1ccccc1CO/N=C(\C)c1cccc(C(F)(F)F)c1 | 38.9 ± 4.6% | 33.6 ± 9.2% | 35.7 ± 5.6% | 78.6 ± 6.2% |  |  |  |
| Oc1ccc(Cl)cc1 [4-Chlorophenol] | 66.4 ± 6.9% | 59.4 ± 4.3% | 60.1 ± 5.1% | 98 ± 9.7% | 60 ± 12% | 33.9 ± 11% | 35.2 ± 7.2% |
| O=[N+]([O-])c1ccc(O)c([N+](=O)[O-])c1 [2,4-Dinitrophenol] | 52 ± 3% | 50.9 ± 4.5% | 59.8 ± 4.8% | 79.6 ± 6.8% | 49.4 ± 8.9% | 52.7 ± 7.5% | 48.7 ± 6.6% |
| CCc1cccc(C)c1NC(=O)CS(=O)(=O)O [Metolachlor CGA 368-208] | 46.1 ± 2.7% | 43.1 ± 7.2% | 47.9 ± 5.2% |  | 37.9 ± 8.1% |  |  |
| COc1cc([C@@H]2c3cc4c(cc3[C@@H](O[C@@H]3O[C@@H]5CO[C@@H](C)O[C@H]5[C@H](O)[C@H]3O)[C@H]3COC(=O)[C@H]23)OCO4)cc(OC)c1O [Etoposide] | 40.9 ± 6.5% | 38.4 ± 0.53% |  | 35.5 ± 10% | 36.8 ± 3.4% | 54.9 ± 4.7% |  |
| Nc1ccc(-c2ccc(N)cc2)cc1 [Benzidine] | 6.11 ± 1.1% | 3.81 ± 0.98% | 5.89 ± 3% | 38.3 ± 7.4% | 6.25 ± 0.9% | 0.64 ± 0.073% | 13.2 ± 2% |
| CCCCNS(=O)(=O)c1ccccc1 [N-Butylbenzenesulfonamide] | 17.5 ± 1.5% | 11.5 ± 1.4% |  |  | 11.4 ± 0.85% | 45.4 ± 6.6% | 48.7 ± 6.1% |
| Cc1cccc(Nc2ccccc2C(=O)O)c1C [Mefenamic acid] | 16.4 ± 0.37% | 14.5 ± 3% | 15.7 ± 2.9% | 54.2 ± 2.1% | 14.9 ± 5% | 60.9 ± 5.4% | 45 ± 7.8% |
| CCCSc1ccc2[nH]c(NC(=O)OC)nc2c1 [Albendazole] | 3.53 ± 0.36% | 2.28 ± 0.42% | 37.8 ± 5.9% | 59.7 ± 5.1% | 5.86 ± 0.39% | 3.61 ± 0.98% | 35.7 ± 3.7% |
| O=P(O)(Oc1ccccc1)Oc1ccccc1 [Diphenylphosphate] | 56 ± 6.6% | 49.8 ± 8.2% | 47 ± 7% |  | 46.4 ± 13% |  | 44.6 ± 4.8% |

More lines, now with the values ahead:

| chemical recovery by SPE of plasma ([1]; equilibration time (d): 3) | chemical recovery by SPE of plasma ([1]; equilibration time (d): 6) | chemical recovery [2, 3] | chemical recovery [2, 4] | chemical recovery by SPE of plasma ([1]; equilibration time (d): 1) | chemical recovery [2, 5] | chemical recovery [2, 6] | Structure (SMILES) |
| --- | --- | --- | --- | --- | --- | --- | --- |
| 57.1 ± 4.7% | 51.1 ± 6.5% | 53.6 ± 7.5% |  | 59.2 ± 5.8% |  |  | C[C@H]1C[C@@H]2[C@H]([C@@H](O)C[C@@]3(C)[C@H]2CC[C@]3(O)C(=O)CO)[C@@]2(C)C=CC(=O)C=C12 [6alpha Methylprednisolone] |
| 21.5 ± 3.9% | 30.9 ± 12% |  | 75 ± 2.5% |  |  | 20.9 ± 5.4% | CC(C)NCC(O)c1ccc(NS(C)(=O)=O)cc1 (stereo unspecified) [Sotalol] |
| 66.6 ± 3.5% | 62.8 ± 4.6% | 56.6 ± 4.3% | 72.5 ± 6.1% | 62.2 ± 10% | 50 ± 3.2% | 44.9 ± 2.1% | CC(=O)CC(c1ccccc1)c1c(O)c2ccccc2oc1=O (stereo unspecified) [Warfarin] |
| 49.6 ± 1.4% | 45.4 ± 6.4% | 52.8 ± 4.5% | 65.4 ± 4.9% |  | 25.4 ± 4.9% | 30.6 ± 4.5% | NC(=O)c1c(Cl)c(Cl)cc(C(=O)O)c1Cl |
| 47 ± 2.3% | 44.9 ± 4.6% | 37.8 ± 5.6% | 70.5 ± 3.8% | 43.2 ± 7.6% | 42.2 ± 3.9% | 36.2 ± 1.4% | CCOC(=O)[C@H](CCc1ccccc1)N[C@@H](C)C(=O)N1CCC[C@H]1C(=O)O [Enalapril] |
| 50.6 ± 2.1% | 43.4 ± 3% |  |  | 44.3 ± 5.8% |  | 97.9 ± 4.8% | Cc1cccc(C)c1N(Cn1cccn1)C(=O)CS(=O)(=O)O [Metazachlor ESA] |
| 1.86 ± 0.99% | 8.53 ± 4.2% |  | 93.4 ± 4.7% |  | 11.2 ± 1.4% | 19.4 ± 5.8% | CC1=CC(=O)NS(=O)(=O)O1 [Acesulfame] |
| 0.612 ± 0.32% | 0.886 ± 0.81% | 0.192 ± 0.098% | 44.8 ± 6.5% | 0.224 ± 0.23% | 0.467 ± 0.11% | 0.483 ± 0.27% | Cn1ccnc1S [Methimazol] |
| 48.4 ± 2.3% | 44.5 ± 1.3% | 61.1 ± 7.2% |  |  |  |  | C[C@]12C=CC(=O)C=C1CC[C@@H]1[C@@H]2[C@@H](O)C[C@@]2(C)[C@H]1CC[C@]2(O)C(=O)CO [Prednisolone] |
| 2.33 ± 0.82% | 3.01 ± 1.1% | 20.8 ± 2.2% |  | 2.82 ± 2.2% |  | 8.44 ± 0.76% | c1ccc2c(c1)ccc1ccccc12 [Phenanthrene] |
| 50.6 ± 3.4% | 44.8 ± 2.3% | 51.3 ± 4.4% | 70.5 ± 3.8% | 46.4 ± 3.9% | 47.4 ± 3.7% | 55.6 ± 8.6% | CC(CCc1ccccc1)NCC(O)c1ccc(O)c(C(N)=O)c1 (stereo unspecified) [Labetalol] |
| 29.5 ± 4.3% | 26.9 ± 3.6% | 36.2 ± 4.7% |  | 28.8 ± 5.2% |  |  | CC[C@H]1OC(=O)[C@H](C)[C@@H](O[C@H]2C[C@@](C)(OC)[C@@H](O)[C@H](C)O2)[C@H](C)[C@@H](O[C@@H]2O[C@H](C)C[C@H](N(C)C)[C@H]2O)[C@](C)(O)C[C@@H](C)/C(=N\OCOCCOC)[C@H](C)[C@@H](O)[C@]1(C)O [Roxithromycin] |
